Laboratory results taken from patent US11319289B2, “5-hydroxy pyridine-based compound for use as P2X1 and P2X3 receptor antagonist and pharmaceutical composition comprising same” (GWANGJU INSTITUTE OF SCIENCE AND TECHNOLOGY, priority 2017, dated 2022).
“And” between values parts separate entries of the source, which are not always exact repeats. Equal entries are not always repeated. Where two headings read alike, the source gives them in different places.

Legend:
Assay type in all cases: cell-based
[1] = target: T1, mouse P2X1 receptor (mP2X1) (Mus musculus, UniProt P51576); assay: Two-electrode voltage clamp assay, recombinant mP2X1 receptor in Xenopus oocytes; conditions: for inhibition at 10 µM / mP2X1 % inhibitory effect at 10 μM: 10 μM compound, mean±SEM n≥3 (footnote c); for inhibition at 10 µM: read-out: mP2X1 % inhibitory effect at 10 μM
T1 construct: expressed in transfected cells; host or cells: Xenopus oocytes (cRNA microinjection)
T1 sequence (P51576 1-399): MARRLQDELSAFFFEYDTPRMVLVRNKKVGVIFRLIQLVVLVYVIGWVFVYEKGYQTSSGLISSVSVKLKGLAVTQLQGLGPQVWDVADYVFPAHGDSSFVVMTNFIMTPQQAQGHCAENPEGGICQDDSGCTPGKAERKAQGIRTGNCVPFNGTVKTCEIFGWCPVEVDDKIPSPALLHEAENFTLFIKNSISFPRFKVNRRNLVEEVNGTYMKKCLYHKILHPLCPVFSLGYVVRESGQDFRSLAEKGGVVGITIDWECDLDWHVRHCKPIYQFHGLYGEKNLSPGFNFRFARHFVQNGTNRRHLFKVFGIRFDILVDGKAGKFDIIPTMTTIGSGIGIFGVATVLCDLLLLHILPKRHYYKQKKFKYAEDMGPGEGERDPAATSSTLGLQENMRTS
Method: (§1) 1-1. Two-Electrode Voltage Clamp Assay for Recombinant mP2X1 and hP2X3 Receptors
(§2) Xenopus oocytes were isolated and incubated with 270 U/mg of collagenase at 23 to 24° C. for 1.5 hours. Defolliculated oocytes were kept in Barth's solution at 18° C. After 1 day, the defolliculated oocytes were each microinjected cytosolically with mP2X1 and human P2X3 receptor cRNA ([…], 1 μg/mL), incubated for 24 hours at 18° C. in Barth's solution. The cRNA-injected oocytes were kept for 12 days at 4° C. ATP-activated membrane currents (Vh=−70 mV) were recorded from the cRNA-injected oocytes using the two-electrode voltage clamp technique (Axoclamp 2B amplifier). Voltage recording ([…] tip resistance) and current-recording microelectrodes (5 MΩ tip resistance) were filled with 3.0 M KCl. Oocytes were placed in an electrophysiological chamber continuously superfused with Ringer's solution (5 mL/min, at 18° C.) containing 110 mM NaCl, 2.5 mM KCl, 5 mM HEPES and 1.8 mM BaCl2, with pH adjusted to 7.5. To induce an evoked current, 2 μM ATP was superfused for 60 to 120 seconds and then washed for 20 min. For data analysis, the ATP-evoked current was normalized at pH 7.5. The compounds were introduced to the fixed oocytes 20 minutes prior to ATP exposure in the electrophysiological chamber. IC50 values (the concentration of the compound required to inhibit the ATP response by 50%) were determined by Hill plots designed using the Chemical Formula: log(I/Imax−1), where I is the current evoked by ATP in the presence of an antagonist. Data are presented as mean±SEM (n≥3) from different batches of oocytes.
(§3) In order to investigate the structure-activity relationship (SAR) of the compounds synthesized in the present invention, the antagonistic activity was evaluated by a two-electrode voltage clamp (TEVC) assay in Xenopus oocytes expressing the recombinant mP2X1 or hP2X3, respectively. The hP2X7R antagonistic activity was assessed using an ethidium ion accumulation assay in human HEK293 cells stably expressing the recombinant human P2X7R.

[2] = target: T2, human P2X3 receptor (hP2X3) (Homo sapiens, UniProt P56373); assay: Two-electrode voltage clamp assay, recombinant hP2X3 receptor in Xenopus oocytes; conditions: for inhibition at 1 µM: 1 μM compound, 2 μM ATP, mean±SEM n≥3 (footnote b), read-out: hP2X3 % inhibitory effect at 1 μM; for inhibition at 1 µM / IC50: Xenopus oocytes; for IC50: 2 μM ATP-evoked current, mean±SEM n≥3 (footnote d); for selectivity for hP2X3R to mP2X1R: hP2X3R versus mP2X1R
T2 construct: expressed in transfected cells; host or cells: Xenopus oocytes (cRNA microinjection)
T2 sequence (P56373 1-397): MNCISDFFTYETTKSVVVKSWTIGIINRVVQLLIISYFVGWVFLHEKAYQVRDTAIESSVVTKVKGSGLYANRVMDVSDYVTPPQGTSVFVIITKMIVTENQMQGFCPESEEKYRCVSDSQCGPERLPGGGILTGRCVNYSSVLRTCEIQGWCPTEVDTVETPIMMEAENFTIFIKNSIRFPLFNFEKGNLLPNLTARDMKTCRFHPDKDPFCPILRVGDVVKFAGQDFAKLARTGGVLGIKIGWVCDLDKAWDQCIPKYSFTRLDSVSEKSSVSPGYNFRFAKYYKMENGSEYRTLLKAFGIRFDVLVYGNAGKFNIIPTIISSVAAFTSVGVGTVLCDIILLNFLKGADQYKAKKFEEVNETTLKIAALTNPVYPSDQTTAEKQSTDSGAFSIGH
Method: as §1, §2, §3

[3] = target: T3, human P2X7 receptor (hP2X7) (Homo sapiens, UniProt Q99572); assay: Ethidium bromide accumulation assay in hP2X7-expressing HEK293 cells; conditions: for hP2X7 % inhibition of ethidium bromide accumulation: 10 μM compound with BzATP
T3 construct: expressed in transfected cells
T3 sequence (Q99572 1-595): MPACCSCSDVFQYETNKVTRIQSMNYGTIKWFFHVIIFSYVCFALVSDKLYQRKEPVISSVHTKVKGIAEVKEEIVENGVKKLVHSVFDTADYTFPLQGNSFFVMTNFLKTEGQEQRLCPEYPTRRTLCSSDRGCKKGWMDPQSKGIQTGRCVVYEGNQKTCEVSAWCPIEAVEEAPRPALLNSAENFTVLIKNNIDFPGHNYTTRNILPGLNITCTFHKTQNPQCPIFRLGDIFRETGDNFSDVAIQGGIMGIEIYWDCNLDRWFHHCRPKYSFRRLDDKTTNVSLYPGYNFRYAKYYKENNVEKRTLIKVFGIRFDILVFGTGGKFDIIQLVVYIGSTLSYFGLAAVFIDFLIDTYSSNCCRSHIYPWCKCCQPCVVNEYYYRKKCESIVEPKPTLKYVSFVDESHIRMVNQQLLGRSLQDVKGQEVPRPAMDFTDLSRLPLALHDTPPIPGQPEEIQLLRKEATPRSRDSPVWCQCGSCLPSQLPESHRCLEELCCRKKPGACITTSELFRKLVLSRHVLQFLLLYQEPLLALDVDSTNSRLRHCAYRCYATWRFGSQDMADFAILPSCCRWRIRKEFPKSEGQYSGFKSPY
Method: 1-2. Ethidium Bromide Accumulation Assay in hP2X-Expressing HEK293 Cells
HEK293 cells that are stably transfected with the human P2X7 receptor (P2X7R) were kept under a humidified atmosphere of 5% CO2 at 37° C. in DMEM supplemented with 10% (v/v) FBS, 2 mM L-glutamine and antibiotics (50 U/mL penicillin and 50 μg/ml streptomycin). BzATP-induced pore formation was measured using a fluorescence plate reader by measuring cellular absorption of ethidium in the hP2X7-expressing HEK293 cells. The hP2X7-expressing HEK293 cells were washed once with an appropriate assay buffer, and the buffer was also removed before subsequent analysis. All studies were performed at room temperature and the final assay volume was 100 μL. The cells were resuspended at 2.5×10^6 cells/mL in assay buffers consisting of 10 mM HEPES, 5 mM N-methyl-D-glucamine, 5.6 mM KCl, 10 mM D-glucose and 0.5 mM CaCl2 (pH 7.4) and supplemented with 280 mM sucrose or 140 mM NaCl.
In order to determine the antagonistic activity of the 5-hydroxyl-pyridine derivatives of the present invention and the reference compound (AZD9056), these compounds were added to the cells at a concentration of 10 μM with BzATP without pre-incubation. The cells were incubated for 2 hours under a humidified atmosphere of 5% CO2 at 37° C., and the absorption of ethidium dye was observed by measuring fluorescence with a Bio-Tek instrument FL600 fluorescent plate reader (excitation wavelength of 530 nm and emission wavelength of 590 nm). The results are expressed as a percentage relative to the maximum cumulative amount of ethidium bromide when stimulated with BzATP alone.
as §3

Row | inhibition at 1 µM [2] [%] | hP2X7 % inhibition of ethidium bromide accumulation [3] | mP2X1 % inhibitory effect at 10 μM ([1]; 2 μM ATP) | IC50 [2] | Structure (SMILES) | other results
1 | 32 | inactive | – | – | COc1ccc(CCc2nc(CC(C)C)c(O)c(C(=O)O)c2C(=O)O)cc1 [Compound 13g, 5-Hydroxy-6-isobutyl-2-(4-methoxyphenethyl)pyridine-3,4-dicarboxylic acid] | inhibition at 10 µM ([1]; 2 μM ATP): 23.4 ± 0.8%
2 | – | inactive | Inactive^c | 709 nM | CCCc1nc(CCc2ccc(OC)cc2)c(C)c(C(N)=O)c1O [Compound 23, 5-Hydroxy-2-[2-(4-methoxyphenyl)ethyl]-3-methyl-6-propyl-pyridine-4-carboxamide] | –
3 | 33.3 | Inactive | Inactive^c | – | COc1ccc(CCc2nc(C)c(O)c(C#N)c2C(=O)O)cc1 [Compound 16, 4-Cyano-5-hydroxy-2-(4-methoxyphenethyl)-6-methylnicotinic acid] | –
4 | – | inactive | Inactive^c | 384 nM and 385 nM | COc1ccc(CCc2nc(C)c(O)c(C(=O)O)c2C)cc1 [Compound 22b, 3-Hydroxy-6-(4-methoxyphenethyl)-2,5-dimethylisonicotinic acid] | –
5 | – | Inactive | Inactive^c | 721 ± 96 nM | COc1ccc(CCc2nc(CCS(C)(=O)=O)c(O)c(C(=O)O)c2C(=O)O)cc1 [Compound 13l, 5-Hydroxy-2-(4-methoxyphenethyl)-6-(2-(methylsulfonyl)ethyl)pyridine-3,4-dicarboxylic acid] | –
6 | < 50 | inactive | inactive^c | – | CCCc1nc(Cc2cccc(Oc3ccccc3)c2)c(C)c(CN)c1O [Compound 41, 4-(Aminomethyl)-5-methyl-6-(3-phenoxybenzyl)-2-propylpyridin-3-ol] | –
7 | < 50 | inactive | Inactive^c | – | CCCc1nc(Cc2cccc(Oc3ccccc3)c2)c(C)c(/C=C/C(=O)O)c1O [Compound 35, (E)-3-(3-Hydroxy-5-methyl-6-(3-phenoxybenzyl)-2-propylpyridin-4-yl)acrylic acid] | –
8 | – | Inactive | – | 303 nM | CCCc1nc(CCc2ccc(OC)cc2)c(C)c(C(=O)O)c1O [Compound 22c, 3-Hydroxy-6-(4-methoxyphenethyl)-5-methyl-2-propylisonicotinic acid] | inhibition at 10 µM ([1]; 2 μM ATP): 22.7%
9 | – | inactive | Inactive^c | 287 ± 87 nM | COc1ccc(CCc2nc(CCSC)c(O)c(C(=O)O)c2C(=O)O)cc1 [Compound 13k, 5-Hydroxy-2-(4-methoxyphenethyl)-6-(2-(methylthio)ethyl)pyridine-3,4-dicarboxylic acid] | –
10 | – | Inactive | – | 561 ± 99 nM | COc1ccc(CCc2ncc(O)c(C(=O)O)c2C(=O)O)cc1 [Compound 13a, 5-Hydroxy-2-(4-methoxyphenethyl)pyridine-3,4-dicarboxylic acid] | IC50 ([1]; 2 μM ATP-evoked current, mean±SEM n≥3 (footnote d), read-out: mP2X1 IC50): 236000 ± 78000 pM; selectivity for hP2X3R to mP2X1R [2]: non-selective
11 | 20.4 | inactive | inactive^c | – | COc1ccc(CCc2cc(S(C)(=O)=O)c(O)c(C)n2)cc1 [Compound 20, 6-(4-Methoxyphenethyl)-2-methyl-4-(methylsulfonyl)pyridin-3-ol] | –
12 | – | Inactive | – | – | COc1ccc(CCc2nc(C)c(O)c(C(=O)O)c2C(=O)O)cc1 [Compound 13b, 5-Hydroxy-2-(4-methoxyphenethyl)-6-methylpyridine-3,4-dicarboxylic acid] | selectivity for hP2X3R to mP2X1R [2]: non-selective
13 | – | inactive | inactive^c | – | CCCc1nc(Cc2cccc(Oc3ccccc3)c2)c(C)c(CCC(=O)O)c1O [Compound 37, 3-(3-Hydroxy-5-methyl-6-(3-phenoxybenzyl)-2-propylpyridin-4-yl)propanoic acid] | –
14 | – | inactive | – | 550 ± 93 nM | CCc1nc(CCc2ccc(OC)cc2)c(C(=O)O)c(C(=O)O)c1O [Compound 13c, 6-Ethyl-5-hydroxy-2-(4-methoxyphenethyl)pyridine-3,4-dicarboxylic acid] | inhibition at 10 µM ([1]; 2 μM ATP): 48.1 ± 8.8%
15 | – | – | – | – | O=C(NCC12CC3CC(CC(C3)C1)C2)c1cc(CCCNCCCO)ccc1Cl [AZD9056, reference compound] | IC50 ([3]; ethidium accumulation, read-out: hP2X7 (reference compound, value in nM)): 0.23 ± 0.11 nM
16 | – | – | – | – | O=C(Nc1cc(C(=O)Nc2ccc(S(=O)(=O)O)cc2S(=O)(=O)O)cc(C(=O)Nc2ccc(S(=O)(=O)O)cc2S(=O)(=O)O)c1)Nc1cc(C(=O)Nc2ccc(S(=O)(=O)O)cc2S(=O)(=O)O)cc(C(=O)Nc2ccc(S(=O)(=O)O)cc2S(=O)(=O)O)c1 [NF-449, reference compound] | IC50 ([1]; 2 μM ATP, read-out: mP2X1 (positive control, value in pM)): 307 ± 93 pM
